13 substances from US8841073B2, “Methods for identifying RNA segments bound by RNA-binding proteins or ribonucleoprotein complexes” (The Rockefeller University, priority 2008, dated 2014) can be followed below.

{NH2} = code of the source, not defined here

The data set concerns most abundant miRNAs in HEK293 cells. The data set can be described thus: miRNA inhibition by cocktail of 2'-O-methyl antisense oligoribonucleotides in HEK293 cells; seed match depletion/enrichment in down-/up-regulated transcripts (Affymetrix arrays). The note with it: antisense cocktail vs mock. The class given is cell-based, human. Here is the method: All miRNAs are assumed to have U at position 1. p-values for 4 types of seeds, indicated below, were tested.
miRNAs are predominantly localized to the cytoplasm although a smaller fraction can be detected in nuclear extracts (Hwang et al., 2007; Meister et al., 2004; Pena et al., 2009; Robb et al., 2005; Weinmann et al., 2009). Our CCRs correspond to 84% exonic, 14% intronic, and 2% not assigned transcribed regions. This distribution is consistent with the predominant cytoplasmic function of miRNAs. Of the exonic CCRs, 50% distributed to the CDS, 46% to the 3′ UTR, and 4% to the 5′ UTR of mRNAs, with a specific enrichment in the 3′UTRs relative to what is expected based on the relative lengths of different transcript regions (FIG. 6D). The identification of such a large number of miRNA binding sites within the CDS was unexpected, because miRNA are believed to predominantly act on 3′ UTRs (Bartel, 2009), with a few reports providing evidence for miRNA-binding to 5′ UTR or CDS (Forman et al., 2008; Lytle et al., 2007; Orom et al., 2008; Tay et al., 2008). In order to determine if CCR-containing transcripts were indeed subject to miRNA-dependent regulation, we inhibited 25 of the most abundant miRNAs in HEK293 cells (FIG. 5C) with a cocktail of 2′-O-methyl-modified antisense oligoribonucleotides (FIG. 7A and see FIG. 28A-C for the efficiency of the individual antisense oligoribonucleotide). The change in relative mRNA abundance before and after miRNA inhibition was recorded by Affymetrix whole transcriptome array analysis.
miRNA duplexes and 2′-O-methyl oligoribonucletide transfections of HEK293 TREx Flp-In cells were carried out using Lipofectamine RNAiMAX (Invitrogen). Total RNA was isolated by TRIZOL RNA extraction. The RNA was further purified and Human Genome U133 Plus 2.0 Array (Affymetrix) analyses were performed as described previously (Landthaler et al., 2008).
CEL files of mRNA profiles from miRNA/2′O-methyl oligonucleotide and mocktransfected cell were loaded into the R software using the BioConductor affy package (Gentleman et al., 2004). The transcript probe set intensities were background-corrected, adjusted for non-specific binding and quantile normalized with the GCRMA algorithm (Wu, 2006). Probe sets with more than 6 of the 11 probes mapping ambiguously to the genome were discarded, as were probe sets that mapped to multiple genes. We then collected all probe sets matching a given gene, and we computed the logarithm of gene-level expression as the average of the log-intensity of probe sets mapping to that gene. For sequence analyses we also selected a representative transcript for each gene. This was the Genbank transcript with median 3′ UTR length corresponding to that gene. In total this procedure gave us expression measurements for 16,063 genes (and representative transcripts). The difference between the log-expression levels of a gene in samples treated with a cocktail of 2′-O-methyl oligoribonucleotides and mock transfected cells was taken as a measure of transcript stabilization upon miRNA inhibition.

In the case of “let-7a: 2'-O-methyl antisense oligoribonucleotide AACUAUACAACCUACUACCUCA-NH2 (SEQ ID NO: 42) (all 2'-O-methyl, 3' {NH2}, backbone not given here)”, the “efficiency of the individual antisense oligoribonucleotide (inhibition of cognate miRNA)” value (from here on “efficiency … (inhibition of cognate miRNA)”) is reported as “Marginal”.
For the substance “miR-10a: 2'-O-methyl antisense oligoribonucleotide CACAAAUUCGGAUCUACAGGGUA-NH2 (SEQ ID NO: 43) (all 2'-O-methyl, 3' {NH2}, backbone not given here)”, the “efficiency … (inhibition of cognate miRNA)” value is “did not seem to have inhibited their cognate miRNAs”. For the same substance, under “listed as MiR-10a”, the “efficiency … (inhibition of cognate miRNA)” value is “Didn't Work”.
Regarding “miR-15a: 2'-O-methyl antisense oligoribonucleotide CGCCAAUAUUUACGUGCUGCUA (SEQ ID NO: 44) (all 2'-O-methyl, backbone not given here)”, the “efficiency … (inhibition of cognate miRNA)” value is “Worked”.
Still for that read-out and setting: under “miR-17: 2'-O-methyl antisense oligoribonucleotide CUACCUGCACUGUAAGCACUUUG (SEQ ID NO: 47) (all 2'-O-methyl, backbone not given here)” stands “Worked”; under “miR-18a: 2'-O-methyl antisense oligoribonucleotide CUAUCUGCACUAGAUGCACCUUA-NH2 (SEQ ID NO: 48) (all 2'-O-methyl, 3' {NH2}, backbone not given here)”, “Worked”.
Still for that read-out and setting: for “miR-19a: 2'-O-methyl antisense oligoribonucleotide UCAGUUUUGCAUAGAUUUGCACA (SEQ ID NO: 49) (all 2'-O-methyl, backbone not given here)” the value was “Worked”; for “miR-21: 2'-O-methyl antisense oligoribonucleotide UCAACAUCAGUCUGAUAAGCUA (SEQ ID NO: 53) (all 2'-O-methyl, backbone not given here)”, “Marginal”.
For the substance “miR-27a: 2'-O-methyl antisense oligoribonucleotide AACUAUACAAUCUACUACCUCA (SEQ ID NO: 55) (all 2'-O-methyl, backbone not given here)”, the “efficiency … (inhibition of cognate miRNA)” value is “did not seem to have inhibited their cognate miRNAs”. Moreover, the “efficiency … (inhibition of cognate miRNA)” value (listed as MiR-27a) was “Didn't Work”.
For the substance “miR-30a: 2'-O-methyl antisense oligoribonucleotide CUUCCAGUCGAGGAUGUUUACA-NH2 (SEQ ID NO: 56) (all 2'-O-methyl, 3' {NH2}, backbone not given here)”, the “efficiency … (inhibition of cognate miRNA)” value is “Worked”.
On the same count and under the same terms, under “miR-92a: 2'-O-methyl antisense oligoribonucleotide ACAGGCCGGGACAAGUGCAAUA (SEQ ID NO: 58) (all 2'-O-methyl, backbone not given here)” stands “Worked”; under “miR-101: 2'-O-methyl antisense oligoribonucleotide UUCAGUUAUCACAGUACUGUA (SEQ ID NO: 60) (all 2'-O-methyl, backbone not given here)”, “Marginal”; under “miR-103: 2'-O-methyl antisense oligoribonucleotide UCAUAGCCCUGUACAAUGCUGCU (SEQ ID NO: 61) (all 2'-O-methyl, backbone not given here)”, “Worked”.
Still for that read-out and setting: under “miR-186: 2'-O-methyl antisense oligoribonucleotide AGCCCAAAAGGAGAAUUCUUUG (SEQ ID NO: 63) (all 2'-O-methyl, backbone not given here)” stands “Didn't Work Well”.
